Data as given in patent US20240299359A1, “PHARMACEUTICAL COMPOSITION FOR ANIMALS CONTAINING 5-HYDROXY-METHYLIMIDAZOLIDINE-2,4-DIONE COMPOUND AS ACTIVE INGREDIENT” (KYONGBO PHARM. CO., LTD., priority 2021, published 2024).
Several values for one entry are separate records, joined by “and”; a condition that tells them apart may be missing. Identical values can stand only once.

Test system: beagles
Experiment: 13-week repeated oral toxicity: urine test
Format: in vivo, beagle
Conditions: for Acidity / Specific gravity / Creatinine UPC / Occult blood / Protein / Bilirubin: urine
Protocol: Urine tests were performed on the urine collected in the morning of blood donation day (Wednesday of the week) after fasting for about 16 hours, before administration, 4th week (day 29) after administration, the 8th week (day 57) after administration, and 13th week (day 92) after administration. Urine was collected from all the fasting subjects using a silicone tube connected to a duct after mounting a urine plate at the bottom of the cage for 16 hours. The collected urine was centrifuged at 1,500 rpm for 5 minutes to obtain the supernatant, then immersed in a urine strip (thinka Urine Test Strip, ARKRAY, Inc., Japan), the residue around the strip was removed, urine was analyzed using a urine analyzer (thinka RT-4010, ARKRAY, Inc., Japan), and the urine specific gravity of each subject was measured using a urine hydrometer (Master-URC.NM, ATAGO CO., LTD, Japan).

[1] = before administration, 200 mg/kg group, female, group mean
[2] = before administration, 200 mg/kg group, female, individual animal
[3] = before administration, 200 mg/kg group, female, individual animal, 200 mg/kg
[4] = before administration, 200 mg/kg group, male, group mean
[5] = before administration, 200 mg/kg group, male, individual animal
[6] = before administration, 200 mg/kg group, male, individual animal, 200 mg/kg
[7] = before administration, 500 mg/kg group, female, group mean
[8] = before administration, 500 mg/kg group, female, individual animal
[9] = before administration, 500 mg/kg group, female, individual animal, 500 mg/kg
[10] = before administration, 500 mg/kg group, male, group mean
[11] = before administration, 500 mg/kg group, male, individual animal
[12] = before administration, 500 mg/kg group, male, individual animal, 500 mg/kg
[13] = before administration, 1,000 mg/kg group, female, group mean
[14] = before administration, 1,000 mg/kg group, female, individual animal
[15] = before administration, 1,000 mg/kg group, male, group mean
[16] = before administration, 1,000 mg/kg group, male, individual animal
[17] = 200 mg/kg, females, repeated administration for 13 weeks, group Mean
[18] = 200 mg/kg, females, repeated administration for 13 weeks, individual animals
[19] = 200 mg/kg, males, repeated administration for 13 weeks, group Mean
[20] = 200 mg/kg, males, repeated administration for 13 weeks, individual animals
[21] = 500 mg/kg, females, repeated administration for 13 weeks, group Mean
[22] = 500 mg/kg, females, repeated administration for 13 weeks, individual animals
[23] = 500 mg/kg, males, repeated administration for 13 weeks, group Mean
[24] = 500 mg/kg, males, repeated administration for 13 weeks, individual animals
[25] = 1,000 mg/kg, females, repeated administration for 13 weeks, group Mean
[26] = 1,000 mg/kg, females, repeated administration for 13 weeks, individual animals
[27] = 1,000 mg/kg, males, repeated administration for 13 weeks, group Mean
[28] = 1,000 mg/kg, males, repeated administration for 13 weeks, individual animals

CN1C(=O)NC(=O)C1O (centres unmarked) [KBP-001, 5-hydroxy-1-methylimidazolidine-2,4-dione]
urine test items including urine specific gravity (before and after administration, 13 weeks): fell within the normal physiological ranges | Acidity [1]: 7.833 PH | Specific gravity [1]: 1.03 | Creatinine UPC [2]: <0.20 mg(ratio) | Occult blood [2]: 0.03(+−) RBC/dl | Acidity [3]: 8.0 PH and 7.0 PH and 8.5 PH | Specific gravity [3]: 1.02 (2×) and 1.04 | Acidity [4]: 8.000 PH | Specific gravity [4]: 1.03 | Creatinine UPC [5]: <0.20 mg(ratio) | Protein [5]: 15(+−) | Acidity [6]: 8.0 PH and 7.0 PH and 9.0 PH | Specific gravity [6]: 1.03 | Acidity [7]: 6.833 PH | Specific gravity [7]: 1.02 | Creatinine UPC [8]: <0.20 mg(ratio) | Occult blood [8]: 0.03(+−) RBC/dl | Acidity [9]: 6.5 PH and 7.0 PH (2×) | Specific gravity [9]: 1.02 | Acidity [10]: 8.167 PH | Specific gravity [10]: 1.03 | Bilirubin [11]: 0.5(1+) | Creatinine UPC [11]: <0.20 mg(ratio) | Acidity [12]: 8.5 PH (2×) and 7.5 PH | Specific gravity [12]: 1.03 (2×) and 1.04 | Acidity [13]: 7.667 PH | Specific gravity [13]: 1.03 | Acidity [14]: 8.0 PH and 7.5 PH (2×) | Creatinine UPC [14]: <0.20 mg(ratio) | Specific gravity [14]: 1.04 and 1.02 (2×) | Acidity [15]: 8.000 PH | Specific gravity [15]: 1.03 | Acidity [16]: 8.0 PH and 9.0 PH and 7.0 PH | Bilirubin [16]: 0.5(1+) | Creatinine UPC [16]: <0.20 mg(ratio) | Occult blood [16]: 0.06(1+) RBC/dl | Specific gravity [16]: 1.03 and 1.02 and 1.04 | Acidity [17]: 7.333 PH | Specific gravity [17]: 1.03 | Acidity [18]: 7.0 PH (2×) and 8.0 PH | Creatinine UPC [18]: <0.20 mg(ratio) | Acidity [19]: 8.567 PH | Specific gravity [19]: 1.04 | Acidity [20]: 8.0 PH and 9.0 PH (2×) | Bilirubin [20]: 0.5(1+) | Creatinine UPC [20]: <0.20 mg(ratio) | Protein [20]: 15(+−) | Specific gravity [20]: 1.04 and 1.05 and 1.02 | Acidity [21]: 8.500 PH | Specific gravity [21]: 1.03 | Acidity [22]: 9.0 PH and 8.5 PH and 8.0 PH | Creatinine UPC [22]: <0.20 mg(ratio) | Specific gravity [22]: 1.04 (2×) and 1.02 | Acidity [23]: 8.500 PH | Specific gravity [23]: 1.04 | Acidity [24]: 9.0 PH (2×) and 7.5 PH | Creatinine UPC [24]: <0.20 mg(ratio) | Protein [24]: 15(+−) | Specific gravity [24]: 1.05 and 1.02 and 1.04 | Acidity [25]: 7.667 PH | Specific gravity [25]: 1.03 | Acidity [26]: 8.0 PH and 7.5 PH (2×) | Creatinine UPC [26]: <0.20 mg(ratio) | Specific gravity [26]: 1.05 and 1.03 and 1.02 | Acidity [27]: 7.833 PH | Specific gravity [27]: 1.03 | Acidity [28]: 9.0 PH and 7.0 PH and 7.5 PH | Creatinine UPC [28]: <0.20 mg(ratio) | Occult blood [28]: 0.06(1+) RBC/dl and 0.03(+−) RBC/dl | Protein [28]: 15(+−) | Specific gravity [28]: 1.04 and 1.02 and 1.03
